Literature values, collected in patent US20230190684A1, “METHODS OF TREATING COVID-19 WITH A NICLOSAMIDE COMPOUND” (priority 2020, published 2023).
Counter-ions that a name gives are not always drawn.

Assays:
[1] = in vivo
[2] = patients treated with niclosamide; literature (McEvoy 1995)

## O=C(Nc1ccc([N+](=O)[O-])cc1Cl)c1cc(Cl)ccc1O [ethanolamine salt, 5-chloro-salicyl-(2-chloro-4-nitro) anilide 2-aminoethanol salt]
Distilled water, 20° C.
  dissolves in distilled water: 180 to 280 mg/L

## O=C(Nc1ccc([N+](=O)[O-])cc1Cl)c1cc(Cl)ccc1O [Niclosamide, 5-chloro-N-(2-chloro-4-nitrophenyl)-2-hydroxybenzamide]
acetone
  solubility in acetone: soluble
ether, ethanol and chloroform
  solubility in ether, ethanol and chloroform: sparingly soluble
water, 20° C.
  water solubility: 5 to 8 µg/mL
[1]
  systemic bioavailability: low
[2]
  Less frequently reported AEs: rash, oral irritation, fever, rectal bleeding, weakness, bad taste in mouth, sweating, palpitation, constipation, alopecia, oedema of an arm, backache, irritability: < 1%
  Other reported AEs: vomiting; abdominal discomfort possibly associated with anorexia, diarrhea, drowsiness, dizziness and headache: 1-4 % of patients
